Data published in ChEMBL document CHEMBL3885861, “Open TG-GATES”.

Organism: Rattus norvegicus
Experiment: Open TG-GATES - Regimen: Single
Format: toxicity, organism-based, Sprague-Dawley
Design: regimen Single, gender Male, age 6 weeks
Details: in vivo, po, route gavage; for APTT / Bas / Eos / Fbg / Hb / Ht / Lym / MCH / MCHC / MCV / Mono / Neu / PT / Plat / RBC / Ret / WBC: tissue Blood; for KIDNEY_L / KIDNEY_R / KIDNEY_TOTAL: tissue Kidney; for LIVER: tissue Liver; for A/G / ALP / ALT / AST / BUN / CRE / Ca / Cl / DBIL / GLC / IP / K / LDH / Na / PL / RALB / TBIL / TC / TG / TP / gamma-GTP: tissue Plasma
[1] = 150 mg/kg, 3 h, dose level Middle
[2] = 150 mg/kg, 6 h, dose level Middle
[3] = 150 mg/kg, 9 h, dose level Middle
[4] = 150 mg/kg, 24 h, dose level Middle
[5] = 500 mg/kg, 3 h, dose level High
[6] = 500 mg/kg, 6 h, dose level High
[7] = 500 mg/kg, 9 h, dose level High
[8] = 500 mg/kg, 24 h, dose level High

CC(=O)Oc1cc(C(C)C)c(OCCN(C)C)cc1C [MOXISYLYTE]
TERMINAL_BW [1]: 205.7 g
APTT [1]: 22.9 s
Bas [1]: 0%
Eos [1]: 1%
Fbg [1]: 293 mg/dL
Hb [1]: 13.5 g/dL
Ht [1]: 39.8%
Lym [1]: 75%
MCH [1]: 21.3 pg
MCHC [1]: 33.8%
MCV [1]: 62.8 fL
Mono [1]: 1.6%
Neu [1]: 21.8%
PT [1]: 15.9 s
Plat [1]: 112.4 x10_4/uL
RBC [1]: 634.4 x10_4/ul
Ret [1]: 7.5%
WBC [1]: 68.3 x10_2/uL
KIDNEY_L [1]: 0.9 g
KIDNEY_R [1]: 0.9 g
KIDNEY_TOTAL [1]: 1.8 g
LIVER [1]: 9.3 g
A/G [1]: 1.3
ALP [1]: 1569.2 IU/L
ALT [1]: 44 IU/L
AST [1]: 81.4 IU/L
BUN [1]: 13.2 mg/dL
CRE [1]: 0.2 mg/dL
Ca [1]: 10.5 mg/dL
Cl [1]: 107.8 meq/L
DBIL [1]: 0.004 mg/dL
GLC [1]: 194 mg/dL
IP [1]: 9.3 mg/dL
K [1]: 4.2 meq/L
LDH [1]: 315.8 IU/L
Na [1]: 142 meq/L
PL [1]: 128.4 mg/dL
RALB [1]: 3.1 g/dL
TBIL [1]: 0.03 mg/dL
TC [1]: 75.8 mg/dL
TG [1]: 28.8 mg/dL
TP [1]: 5.4 g/dL
gamma-GTP [1]: 1.2 IU/L
TERMINAL_BW [2]: 206.6 g
APTT [2]: 21.8 s
Bas [2]: 0%
Eos [2]: 1%
Fbg [2]: 313.2 mg/dL
Hb [2]: 13.3 g/dL
Ht [2]: 38.6%
Lym [2]: 72%
MCH [2]: 20.8 pg
MCHC [2]: 34.4%
MCV [2]: 60.3 fL
Mono [2]: 2.2%
Neu [2]: 23.8%
PT [2]: 15.8 s
Plat [2]: 129.5 x10_4/uL
RBC [2]: 641.2 x10_4/ul
Ret [2]: 7.2%
WBC [2]: 67.7 x10_2/uL
KIDNEY_L [2]: 0.9 g
KIDNEY_R [2]: 0.9 g
KIDNEY_TOTAL [2]: 1.9 g
LIVER [2]: 8.9 g
A/G [2]: 1.2
ALP [2]: 1449.6 IU/L
ALT [2]: 39.4 IU/L
AST [2]: 74.8 IU/L
BUN [2]: 10.6 mg/dL
CRE [2]: 0.2 mg/dL
Ca [2]: 10.6 mg/dL
Cl [2]: 108.4 meq/L
DBIL [2]: 0.01 mg/dL
GLC [2]: 181.8 mg/dL
IP [2]: 9 mg/dL
K [2]: 4.8 meq/L
LDH [2]: 253.6 IU/L
Na [2]: 140.8 meq/L
PL [2]: 137.4 mg/dL
RALB [2]: 3 g/dL
TBIL [2]: 0.008 mg/dL
TC [2]: 72.2 mg/dL
TG [2]: 61.6 mg/dL
TP [2]: 5.4 g/dL
gamma-GTP [2]: 1 IU/L
TERMINAL_BW [3]: 208.5 g
APTT [3]: 21.5 s
Bas [3]: 0%
Eos [3]: 1%
Fbg [3]: 308.2 mg/dL
Hb [3]: 13.3 g/dL
Ht [3]: 38.7%
Lym [3]: 72%
MCH [3]: 21.2 pg
MCHC [3]: 34.5%
MCV [3]: 61.4 fL
Mono [3]: 2.4%
Neu [3]: 23.8%
PT [3]: 15.9 s
Plat [3]: 118.6 x10_4/uL
RBC [3]: 631.2 x10_4/ul
Ret [3]: 8.4%
WBC [3]: 93 x10_2/uL
KIDNEY_L [3]: 1 g
KIDNEY_R [3]: 1 g
KIDNEY_TOTAL [3]: 1.9 g
LIVER [3]: 8.5 g
A/G [3]: 1.3
ALP [3]: 1409.6 IU/L
ALT [3]: 38.8 IU/L
AST [3]: 70.2 IU/L
BUN [3]: 11.4 mg/dL
CRE [3]: 0.2 mg/dL
Ca [3]: 10.5 mg/dL
Cl [3]: 107.8 meq/L
DBIL [3]: 0.008 mg/dL
GLC [3]: 181.8 mg/dL
IP [3]: 9.7 mg/dL
K [3]: 4.3 meq/L
LDH [3]: 240.2 IU/L
Na [3]: 141.8 meq/L
PL [3]: 135 mg/dL
RALB [3]: 3.1 g/dL
TBIL [3]: 0.026 mg/dL
TC [3]: 75.6 mg/dL
TG [3]: 47.4 mg/dL
TP [3]: 5.6 g/dL
gamma-GTP [3]: 1 IU/L
TERMINAL_BW [4]: 221.8 g
APTT [4]: 21.2 s
Bas [4]: 0%
Eos [4]: 0.8%
Fbg [4]: 313.8 mg/dL
Hb [4]: 13.5 g/dL
Ht [4]: 38.6%
Lym [4]: 79.6%
MCH [4]: 21.3 pg
MCHC [4]: 34.9%
MCV [4]: 61.2 fL
Mono [4]: 2%
Neu [4]: 17.4%
PT [4]: 15.8 s
Plat [4]: 121.2 x10_4/uL
RBC [4]: 632.2 x10_4/ul
Ret [4]: 7.7%
WBC [4]: 96.5 x10_2/uL
KIDNEY_L [4]: 1 g
KIDNEY_R [4]: 1 g
KIDNEY_TOTAL [4]: 2 g
LIVER [4]: 10.8 g
A/G [4]: 1.2
ALP [4]: 1617.2 IU/L
ALT [4]: 43.6 IU/L
AST [4]: 70.8 IU/L
BUN [4]: 17.2 mg/dL
CRE [4]: 0.2 mg/dL
Ca [4]: 11.3 mg/dL
Cl [4]: 106 meq/L
DBIL [4]: 0 mg/dL
GLC [4]: 179.4 mg/dL
IP [4]: 7.4 mg/dL
K [4]: 4.3 meq/L
LDH [4]: 247.2 IU/L
Na [4]: 141.8 meq/L
PL [4]: 163.2 mg/dL
RALB [4]: 3.2 g/dL
TBIL [4]: 0.006 mg/dL
TC [4]: 81.6 mg/dL
TG [4]: 178.8 mg/dL
TP [4]: 5.9 g/dL
gamma-GTP [4]: 1.4 IU/L
TERMINAL_BW [5]: 212.3 g
APTT [5]: 21.6 s
Bas [5]: 0%
Eos [5]: 1.2%
Fbg [5]: 311.2 mg/dL
Hb [5]: 12.6 g/dL
Ht [5]: 37.4%
Lym [5]: 72.6%
MCH [5]: 21.4 pg
MCHC [5]: 33.7%
MCV [5]: 63.2 fL
Mono [5]: 2%
Neu [5]: 23.6%
PT [5]: 16 s
Plat [5]: 115.9 x10_4/uL
RBC [5]: 590.6 x10_4/ul
Ret [5]: 8.3%
WBC [5]: 64.3 x10_2/uL
KIDNEY_L [5]: 0.9 g
KIDNEY_R [5]: 1 g
KIDNEY_TOTAL [5]: 1.9 g
LIVER [5]: 9.7 g
A/G [5]: 1.4
ALP [5]: 1326.8 IU/L
ALT [5]: 43 IU/L
AST [5]: 81.6 IU/L
BUN [5]: 14.6 mg/dL
CRE [5]: 0.1 mg/dL
Ca [5]: 10.6 mg/dL
Cl [5]: 107.8 meq/L
DBIL [5]: 0.014 mg/dL
GLC [5]: 196.8 mg/dL
IP [5]: 10.3 mg/dL
K [5]: 4.5 meq/L
LDH [5]: 251 IU/L
Na [5]: 142.2 meq/L
PL [5]: 132.2 mg/dL
RALB [5]: 3.1 g/dL
TBIL [5]: 0.028 mg/dL
TC [5]: 79 mg/dL
TG [5]: 33.8 mg/dL
TP [5]: 5.5 g/dL
gamma-GTP [5]: 1 IU/L
TERMINAL_BW [6]: 211.5 g
APTT [6]: 21.2 s
Bas [6]: 0%
Eos [6]: 1%
Fbg [6]: 318.6 mg/dL
Hb [6]: 13 g/dL
Ht [6]: 38%
Lym [6]: 77%
MCH [6]: 21.2 pg
MCHC [6]: 34.1%
MCV [6]: 62.1 fL
Mono [6]: 2.2%
Neu [6]: 19.2%
PT [6]: 15.6 s
Plat [6]: 119.7 x10_4/uL
RBC [6]: 611.8 x10_4/ul
Ret [6]: 8.1%
WBC [6]: 63.2 x10_2/uL
KIDNEY_L [6]: 1 g
KIDNEY_R [6]: 1 g
KIDNEY_TOTAL [6]: 2 g
LIVER [6]: 9.8 g
A/G [6]: 1.3
ALP [6]: 1572.4 IU/L
ALT [6]: 40.6 IU/L
AST [6]: 75.2 IU/L
BUN [6]: 11.8 mg/dL
CRE [6]: 0.1 mg/dL
Ca [6]: 10.5 mg/dL
Cl [6]: 107.8 meq/L
DBIL [6]: 0.014 mg/dL
GLC [6]: 194.2 mg/dL
IP [6]: 10 mg/dL
K [6]: 4.5 meq/L
LDH [6]: 239 IU/L
Na [6]: 141 meq/L
PL [6]: 141.6 mg/dL
RALB [6]: 3.1 g/dL
TBIL [6]: 0.026 mg/dL
TC [6]: 75.4 mg/dL
TG [6]: 42.4 mg/dL
TP [6]: 5.5 g/dL
gamma-GTP [6]: 1.2 IU/L
TERMINAL_BW [7]: 205.5 g
APTT [7]: 20.8 s
Bas [7]: 0%
Eos [7]: 0.8%
Fbg [7]: 351 mg/dL
Hb [7]: 13.6 g/dL
Ht [7]: 40.1%
Lym [7]: 69.2%
MCH [7]: 21.4 pg
MCHC [7]: 33.9%
MCV [7]: 63.3 fL
Mono [7]: 2.6%
Neu [7]: 27.4%
PT [7]: 15.8 s
Plat [7]: 124.5 x10_4/uL
RBC [7]: 633.8 x10_4/ul
Ret [7]: 7.8%
WBC [7]: 68.7 x10_2/uL
KIDNEY_L [7]: 0.9 g
KIDNEY_R [7]: 1 g
KIDNEY_TOTAL [7]: 1.9 g
LIVER [7]: 9.1 g
A/G [7]: 1.2
ALP [7]: 1633.4 IU/L
ALT [7]: 41 IU/L
AST [7]: 76.6 IU/L
BUN [7]: 11.4 mg/dL
CRE [7]: 0.1 mg/dL
Ca [7]: 10.4 mg/dL
Cl [7]: 108.6 meq/L
DBIL [7]: 0.018 mg/dL
GLC [7]: 196.6 mg/dL
IP [7]: 9.9 mg/dL
K [7]: 4.3 meq/L
LDH [7]: 223.6 IU/L
Na [7]: 142.2 meq/L
PL [7]: 142 mg/dL
RALB [7]: 3.1 g/dL
TBIL [7]: 0.034 mg/dL
TC [7]: 74.8 mg/dL
TG [7]: 49.4 mg/dL
TP [7]: 5.7 g/dL
gamma-GTP [7]: 1.2 IU/L
TERMINAL_BW [8]: 215.6 g
APTT [8]: 19.4 s
Bas [8]: 0%
Eos [8]: 0.8%
Fbg [8]: 300.6 mg/dL
Hb [8]: 13.4 g/dL
Ht [8]: 38.6%
Lym [8]: 76.4%
MCH [8]: 22.1 pg
MCHC [8]: 34.7%
MCV [8]: 63.6 fL
Mono [8]: 2%
Neu [8]: 20%
PT [8]: 15.8 s
Plat [8]: 140.3 x10_4/uL
RBC [8]: 607.2 x10_4/ul
Ret [8]: 8.2%
WBC [8]: 111.6 x10_2/uL
KIDNEY_L [8]: 1 g
KIDNEY_R [8]: 1 g
KIDNEY_TOTAL [8]: 1.9 g
LIVER [8]: 10.4 g
A/G [8]: 1.2
ALP [8]: 1455.6 IU/L
ALT [8]: 44.8 IU/L
AST [8]: 73.4 IU/L
BUN [8]: 18 mg/dL
CRE [8]: 0.1 mg/dL
Ca [8]: 11.1 mg/dL
Cl [8]: 106.4 meq/L
DBIL [8]: 0 mg/dL
GLC [8]: 176.8 mg/dL
IP [8]: 8.6 mg/dL
K [8]: 4.1 meq/L
LDH [8]: 241 IU/L
Na [8]: 142 meq/L
PL [8]: 149.8 mg/dL
RALB [8]: 3 g/dL
TBIL [8]: 0.006 mg/dL
TC [8]: 77 mg/dL
TG [8]: 100.6 mg/dL
TP [8]: 5.6 g/dL
gamma-GTP [8]: 1 IU/L
